Measurements published in ChEMBL document CHEMBL4190312, “Tau protein aggregation in Alzheimer's disease: An attractive target for the development of novel therapeutic agents” (Eur J Med Chem, 2017).

Key:
Homo sapiens [1] = organism: Homo sapiens; experiment: Selectivity index, ratio of Ki for human beta-hexosaminidase B to Ki for human O-GlcNAcase
Protein O-GlcNAcase = target: T1, Protein O-GlcNAcase (Homo sapiens, UniProt O60502); experiment: Competitive inhibition of human O-GlcNAcase by Lineweaver-Burk analysis
T1 sequence (O60502 whole entry): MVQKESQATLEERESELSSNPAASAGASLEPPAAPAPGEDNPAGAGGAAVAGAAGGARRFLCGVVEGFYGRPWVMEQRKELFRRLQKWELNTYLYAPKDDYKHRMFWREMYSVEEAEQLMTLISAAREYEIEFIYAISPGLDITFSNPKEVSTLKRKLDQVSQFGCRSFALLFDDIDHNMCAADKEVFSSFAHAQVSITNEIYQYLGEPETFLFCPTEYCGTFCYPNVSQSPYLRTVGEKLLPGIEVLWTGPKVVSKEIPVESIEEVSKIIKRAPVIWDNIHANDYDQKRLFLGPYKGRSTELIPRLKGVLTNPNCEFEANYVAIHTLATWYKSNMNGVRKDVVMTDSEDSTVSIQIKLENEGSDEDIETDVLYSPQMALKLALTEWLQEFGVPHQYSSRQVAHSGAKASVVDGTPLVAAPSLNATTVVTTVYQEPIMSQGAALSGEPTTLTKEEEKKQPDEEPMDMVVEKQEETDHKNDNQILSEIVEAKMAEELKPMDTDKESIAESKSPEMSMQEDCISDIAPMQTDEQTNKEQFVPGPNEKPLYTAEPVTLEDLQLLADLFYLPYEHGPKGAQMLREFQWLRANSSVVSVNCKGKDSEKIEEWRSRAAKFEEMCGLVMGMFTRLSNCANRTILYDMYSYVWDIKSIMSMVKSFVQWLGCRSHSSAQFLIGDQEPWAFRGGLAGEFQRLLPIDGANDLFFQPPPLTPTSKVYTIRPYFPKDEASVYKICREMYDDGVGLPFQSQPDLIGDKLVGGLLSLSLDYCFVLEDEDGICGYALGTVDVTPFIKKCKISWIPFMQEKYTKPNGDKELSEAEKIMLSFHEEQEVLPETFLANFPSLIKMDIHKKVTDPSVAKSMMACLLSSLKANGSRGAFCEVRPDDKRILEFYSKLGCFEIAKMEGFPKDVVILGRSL

Homo sapiens [2] = organism: Homo sapiens; experiment: Selectivity index, ratio of Ki for human beta-hexosaminidase A to Ki for human O-GlcNAcase

In the case of `C=C/C=C/C(=O)N[C@H]1c2nc(CCc3ccccc3)cn2[C@H](CO)[C@@H](O)[C@@H]1O`, the Ratio Ki (Homo sapiens [1]) is reported as 900000, the Ki (Protein O-GlcNAcase) is reported as 4.1 nM and the Ratio Ki (Homo sapiens [2]) is reported as 900000.
